This assay deals with T1, human TGR5 (Homo sapiens, UniProt Q8TDU6).
T1 construct: expressed in transfected cells; host or cells: HEK293
T1 sequence (Q8TDU6 1-330): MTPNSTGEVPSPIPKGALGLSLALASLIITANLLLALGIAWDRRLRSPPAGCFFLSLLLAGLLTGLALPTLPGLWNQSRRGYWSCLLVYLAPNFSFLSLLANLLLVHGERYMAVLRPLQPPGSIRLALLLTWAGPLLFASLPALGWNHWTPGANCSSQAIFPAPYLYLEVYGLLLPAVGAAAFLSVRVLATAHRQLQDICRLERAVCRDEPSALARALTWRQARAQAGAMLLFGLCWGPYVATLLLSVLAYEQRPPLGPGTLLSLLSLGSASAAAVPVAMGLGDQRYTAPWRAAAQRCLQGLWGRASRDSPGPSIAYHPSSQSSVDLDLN
Description: Cell-based TGR5 assay (cAMP generation, HTRF). The following applies: HEK293 cells stably transfected with human TGR5; cAMP by HTRF; 30 minutes at 37° C.; read-out: pEC50 Human TGR5 (converted). The method in brief:
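Read-out was HTRF detection of cAMP, converted to concentration via a standard curve and fitted (3-parameter logistic) for pEC50 and maximal response. Agonist stimulation used HEK293 cells stably transfected with human TGR5, incubated 30 min at 37° C in IBMX-containing buffer at 0.05 nM to 10 μM compound.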
(Time-resolved FRET reads energy transfer from a long-lived donor to a nearby acceptor.)
As to `O=C(NCCCCSc1ccc(Cl)c(COC2(c3cnccc3-c3ccccc3OC3CC3)CC2)c1)NC[C@H](O)[C@@H](O)[C@H](O)[C@H](O)CO` [Compound I-621, 1-(4-{[4-chloro-3-({1-[4-(2-cyclopropoxyphenyl)pyridin-3-yl]cyclopropoxy}methyl)phenyl]sulfanyl}butyl)-3-[(2S,3R,4R,5R)-2,3,4,5,6-pentahydroxyhexyl]urea], the EC50 is < 100 nM.
In the case of `O=C(NCCCSc1ccc(Cl)c(CNC2(c3cnccc3-c3ccccc3OC3CC3)CC2)c1)NC[C@H](O)[C@@H](O)[C@H](O)[C@H](O)CO` [Compound I-622, 1-[3-({4-chloro-3-[({1-[4-(2-cyclopropoxyphenyl)pyridin-3-yl]cyclopropyl}amino)methyl]phenyl}sulfanyl)propyl]-3-[(2S,3R,4R,5R)-2,3,4,5,6-pentahydroxyhexyl]urea], the EC50 is < 100 nM.
Consider `O=C(NCCCCSc1ccc(Cl)c(CNC2(c3cnccc3-c3ccccc3OC3CC3)CC2)c1)NC[C@H](O)[C@@H](O)[C@H](O)[C@H](O)CO` [Compound I-623, 1-[4-({4-chloro-3-[({1-[4-(2-cyclopropoxyphenyl)pyridin-3-yl]cyclopropyl}amino)methyl]phenyl}sulfanyl)butyl]-3-[(2S,3R,4R,5R)-2,3,4,5,6-pentahydroxyhexyl]urea], for which the EC50 is < 100 nM.
For the compound `O=C1NCCN1CCN(CCCCSc1ccc(Cl)c(CNC2(c3cnccc3-c3ccccc3OC3CC3)CC2)c1)C(=O)[C@@H](O)[C@@H](O)[C@H](O)[C@@H](O)CO` [Compound I-624, (2S,3S,4R,5S)-N-[4-({4-chloro-3-[({1-[4-(2-cyclopropoxyphenyl)pyridin-3-yl]cyclopropyl}amino)methyl]phenyl}sulfanyl)butyl]-2,3,4,5,6-pentahydroxy-N-[2-(2-oxoimidazolidin-1-yl)ethyl]hexanamide], the EC50 is 126 to 1000 nM.
As for `O=C(NCCCSc1ccc(Cl)c(COC2(c3cnccc3-c3ccccc3OC3CC3)CC2)c1)NC[C@H](O)[C@@H](O)[C@H](O)[C@H](O)CO` [Compound I-625, 1-(3-{[4-chloro-3-({1-[4-(2-cyclopropoxyphenyl)pyridin-3-yl]cyclopropoxy}methyl)phenyl]sulfanyl}propyl)-3-[(2S,3R,4R,5R)-2,3,4,5,6-pentahydroxyhexyl]urea], the EC50 is < 100 nM.
Consider `O=C(NCCOCCSc1ccc(Cl)c(CNC2(c3cnccc3-c3ccccc3OC3CC3)CC2)c1)NC[C@H](O)[C@@H](O)[C@H](O)[C@H](O)CO` [Compound I-626, 1-{2-[2-({4-chloro-3-[({1-[4-(2-cyclopropoxyphenyl)pyridin-3-yl]cyclopropyl}amino)methyl]phenyl}sulfanyl)ethoxy]ethyl}-3-[(2S,3R,4R,5R)-2,3,4,5,6-pentahydroxyhexyl]urea], for which the EC50 was < 100 nM.
On to `O=C(NCCCCCSc1ccc(Cl)c(COC2(c3cnccc3-c3ccccc3OC3CC3)CC2)c1)NCCCCNC(=O)NC[C@H](O)[C@@H](O)[C@H](O)[C@H](O)CO` [Compound I-627], for which the EC50 was < 100 nM.
The same measure for `O=C(NCCCCSc1ccc(Cl)c(COC2(c3cnccc3-c3ccccc3OC3CC3)CC2)c1)N[C@@H](CO)[C@@H](O)[C@H](O)[C@H](O)CO` [Compound I-628, 1-(4-{[4-chloro-3-({1-[4-(2-cyclopropoxyphenyl)pyridin-3-yl]cyclopropoxy}methyl)phenyl]sulfanyl}butyl)-3-[(2S,3R,4S,5R)-1,3,4,5,6-pentahydroxyhexan-2-yl]urea]: < 100 nM; for `O=C(NCCCCNC(=O)NC[C@H](O)[C@@H](O)[C@H](O)[C@H](O)CO)NCCCCSc1ccc(Cl)c(COC2(c3cnccc3-c3ccccc3OC3CC3)CC2)c1` [Compound I-629, 1-(4-{[(4-{[4-chloro-3-({1-[4-(2-cyclopropoxyphenyl)pyridin-3-yl]cyclopropoxy}methyl)phenyl]sulfanyl}butyl)carbamoyl]amino}butyl)-3-[(2S,3R,4R,5R)-2,3,4,5,6-pentahydroxyhexyl]urea]: < 100 nM; for `O=C(NCCCCCSc1ccc(Cl)c(COC2(c3cnccc3-c3ccccc3OC3CC3)CC2)c1)N[C@H]1CC[C@H](NC(=O)NC[C@H](O)[C@@H](O)[C@H](O)[C@H](O)CO)CC1` [Compound I-630, 1-(5-{[4-chloro-3-({1-[4-(2-cyclopropoxyphenyl)pyridin-3-yl]cyclopropoxy}methyl)phenyl]sulfanyl}pentyl)-3-[(1r,4r)-4-({[(2S,3R,4R,5R)-2,3,4,5,6-pentahydroxyhexyl]carbamoyl}amino)cyclohexyl]urea]: < 100 nM.
Regarding `O=C(CN1CCC(NC(=O)NCCCCCSc2ccc(Cl)c(COC3(c4cnccc4-c4ccccc4OC4CC4)CC3)c2)CC1)NC[C@H](O)[C@@H](O)[C@H](O)[C@H](O)CO` [Compound I-631, 2-(4-{[(5-{[4-chloro-3-({1-[4-(2-cyclopropoxyphenyl)pyridin-3-yl]cyclopropoxy}methyl)phenyl]sulfanyl}pentyl)carbamoyl]amino}piperidin-1-yl)-N-[(2S,3R,4R,5R)-2,3,4,5,6-pentahydroxyhexyl]acetamide], the EC50 was < 100 nM.
Turning to `O=C(NCCCCSc1ccc(Cl)c(COC2(c3cnccc3-c3ccccc3OC3CC3)CC2)c1)N[C@H]1CC[C@H](NC(=O)NC[C@H](O)[C@@H](O)[C@H](O)[C@H](O)CO)CC1` [Compound I-632, 1-(4-{[4-chloro-3-({1-[4-(2-cyclopropoxyphenyl)pyridin-3-yl]cyclopropoxy}methyl)phenyl]sulfanyl}butyl)-3-[(1r,4r)-4-({[(2S,3R,4R,5R)-2,3,4,5,6-pentahydroxyhexyl]carbamoyl}amino)cyclohexyl]urea], the EC50 was < 100 nM.
Regarding `O=C(CN1CCC(NC(=O)NCCCCSc2ccc(Cl)c(COC3(c4cnccc4-c4ccccc4OC4CC4)CC3)c2)CC1)NC[C@H](O)[C@@H](O)[C@H](O)[C@H](O)CO` [Compound I-633, 2-(4-{[(4-{[4-chloro-3-({1-[4-(2-cyclopropoxyphenyl)pyridin-3-yl]cyclopropoxy}methyl)phenyl]sulfanyl}butyl)carbamoyl]amino}piperidin-1-yl)-N-[(2S,3R,4R,5R)-2,3,4,5,6-pentahydroxyhexyl]acetamide], the EC50 was < 100 nM.
The same measure for `O=C(NCCCCCSc1ccc(Cl)c(COC2(c3cnccc3-c3ccccc3OC3CC3)CC2)c1)N[C@H]1CC[C@@H](NC(=O)NC[C@H](O)[C@@H](O)[C@H](O)[C@H](O)CO)CC1` [Compound I-634, 1-(5-{[4-chloro-3-({1-[4-(2-cyclopropoxyphenyl)pyridin-3-yl]cyclopropoxy}methyl)phenyl]sulfanyl}pentyl)-3-[(1s,4s)-4-({[(2S,3R,4R,5R)-2,3,4,5,6-pentahydroxyhexyl]carbamoyl}amino)cyclohexyl]urea]: < 100 nM.
For `O=C(NCCCCSc1ccc(Cl)c(COC2(c3cnccc3-c3ccccc3OC3CC3)CC2)c1)N[C@H]1CC[C@@H](NC(=O)NC[C@H](O)[C@@H](O)[C@H](O)[C@H](O)CO)CC1` [Compound I-635, 1-(4-{[4-chloro-3-({1-[4-(2-cyclopropoxyphenyl)pyridin-3-yl]cyclopropoxy}methyl)phenyl]sulfanyl}butyl)-3-[(1s,4s)-4-({[(2S,3R,4R,5R)-2,3,4,5,6-pentahydroxyhexyl]carbamoyl}amino)cyclohexyl]urea] the value was < 100 nM; for `O=C(NCCCCCSc1ccc(Cl)c(COC2(c3cnccc3-c3ccccc3OC3CC3)CC2)c1)N[C@@H](CO)[C@@H](O)[C@H](O)[C@H](O)CO` [Compound I-636, 1-(5-{[4-chloro-3-({1-[4-(2-cyclopropoxyphenyl)pyridin-3-yl]cyclopropoxy}methyl)phenyl]sulfanyl}pentyl)-3-[(2S,3R,4S,5R)-1,3,4,5,6-pentahydroxyhexan-2-yl]urea], < 100 nM.
On to `O=C(NCCOCCSc1ccc(Cl)c(COC2(c3cnccc3-c3ccccc3OC3CC3)CC2)c1)N[C@@H](CO)[C@@H](O)[C@H](O)[C@H](O)CO` [Compound I-637, 1-[2-(2-{[4-chloro-3-({1-[4-(2-cyclopropoxyphenyl)pyridin-3-yl]cyclopropoxy}methyl)phenyl]sulfanyl}ethoxy)ethyl]-3-[(2S,3R,4S,5R)-1,3,4,5,6-pentahydroxyhexan-2-yl]urea], for which the EC50 was < 100 nM.
The same measure for `O=C(NCCCCNC(=O)NCCOCCSc1ccc(Cl)c(COC2(c3cnccc3-c3ccccc3OC3CC3)CC2)c1)NCCOCCSc1ccc(Cl)c(COC2(c3cnccc3-c3ccccc3OC3CC3)CC2)c1` [Compound I-638, 3-[2-(2-{[4-chloro-3-({1-[4-(2-cyclopropoxyphenyl)pyridin-3-yl]cyclopropoxy}methyl)phenyl]sulfanyl}ethoxy)ethyl]-1-[4-({[2-(2-{[4-chloro-3-({1-[4-(2-cyclopropoxyphenyl)pyridin-3-yl]cyclopropoxy}methyl)phenyl]sulfanyl}ethoxy)ethyl]carbamoyl}amino)butyl]urea]: 126 to 1000 nM.
Turning to `O=C(NCCCCC[S+]([O-])c1ccc(Cl)c(COC2(c3cnccc3-c3ccccc3OC3CC3)CC2)c1)NC[C@H](O)[C@@H](O)[C@H](O)[C@H](O)CO` (stereo partly drawn) [Compound I-639, 1-{5-[4-chloro-3-({1-[4-(2-cyclopropoxyphenyl)pyridin-3-yl]cyclopropoxy}methyl)benzenesulfinyl]pentyl}-3-[(2S,3R,4R,5R)-2,3,4,5,6-pentahydroxyhexyl]urea], the EC50 was < 100 nM.

Values taken from patent publication US12084472B2 (Ardelyx, Inc., priority 2015, dated 2024).
